Experimental data from patent US5070210A, “Novel ketenimines as intermediates for insecticides” (ICI Americas Inc., priority 1990, dated 1991).

Legend:
Type in all cases: in vivo
[1] = system: Housefly [Musca domestica]; test: Housefly insecticidal test; settings: μg per 25 female flies; mortality after 48 hours
Procedure: (§1) The compounds in Tables 1 and 2 above were tested for insecticidal activity using the following testing procedures. LC50 values, based on the results of these tests and calculated according to dosage-mortality curves, are expressed in Table 3.
Housefly [Musca domestica]:
Test compounds were diluted in acetone and aliquots pipetted onto the bottom of aluminum dishes. To ensure even spreading of the chemical on the bottom of the dishes, 1 ml of acetone containing 0.01% peanut oil was also added to each dish. After all solvents had evaporated, the dishes were placed in circular cardboard cages containing 25 female houseflies, 1-2 days old. The cages were covered on the bottom with cellophane and on the top with tulle netting, and each contained a sugar-water saturated cotton plug for maintenance of the flies. Mortality was recorded after 48 hours. Test levels ranged from 100 μg/25 female houseflies downward. The LC-50 value is expressed below in Table 3 under the heading "HF", in terms of μg of the test compound per 25 female flies.

[2] = system: Cabbage Looper [Trichoplusia ni (Hubner)]; test: Cabbage looper insecticidal test; settings: second-instar larvae, percent in solution; 3-5 days
Procedure: as §1
Cabbage Looper [Trichoplusia ni (Hubner)]:
Test compounds were diluted in a 50-50 acetone-water solution. Cotyledons of hyzini squash (Calabacita abobrinha), approximately 1×1.5 inches, were immersed in the test solutions for 2-3 seconds and placed on a wire screen to dry. The dried leaves were placed in petri dishes containing a moistened piece of filter paper and infested with 5 second-instar cabbage looper larvae. The dishes were placed in a high humidity chamber. Mortality of the larvae was recorded 3-5 days later. Test concentrations ranged from 0.1% downward. The LC-50 value is expressed below in Table 3 under the heading "CL" in terms of percent of the test compound in solution.

[3] = system: Tobacco Budworm [Heliothis virescens (Fabricius)] eggs; test: Tobacco budworm egg test; settings: 2-day old eggs, percent in solution
Procedure: as §1
Tobacco Budworm [Heliothis virescens (Fabricius)]:
(b). Eggs: Paper towel patches of 2-day old eggs of the tobacco budworm were dipped in acetone solutions of the test compound and placed in petri dishes containing a portion of larval rearing medium. Treated eggs were maintained at 78° F. and mortality was recorded after all control eggs had hatched and the young larvae were feeding on the media. Test concentrations ranged from 0.1% downward. The LC-50 value is expressed below in Table 3 under the heading "TBW-E" in terms of percent of the test compound in the solution.

| Compound | LC50, HF [1] | LC50, CL [2] | LC50, TBW, E (TBW-E) [3] |
| --- | --- | --- | --- |
| CC(C)(C)C(=Nc1cccc(Cl)c1)OCc1cccc(Oc2ccccc2)c1 [Compound 12] | > 100 µg | 0.008% | > 0.1% |
| CC1CC1C(=Nc1ccc(Cl)cc1)OCc1cccc(Oc2ccccc2)c1 (stereo not shown) [Compound 15] | > 100 µg | 0.025% | > 0.1% |
| CC(C)C(=Nc1cc(Cl)c(Cl)cc1Cl)OCc1cccc(Oc2ccccc2)c1 [Compound 18] | > 100 µg | 0.008% | 0.09% |
| CC(C)C(=Nc1c(Cl)cc(Cl)cc1Cl)OCc1cccc(Oc2ccccc2)c1 [Compound 19] | > 100 µg | < 0.1% | > 0.1% |
| COC(C)C(=Nc1ccc(Cl)cc1)OCc1cccc(Oc2ccccc2)c1 (stereo not shown) [Compound 22] | 15 µg | 0.004% | 0.08% |
| Clc1cccc(N=C(OCc2cccc(Oc3ccccc3)c2)C2CC2)c1 [Compound 24] | 25 µg | 0.005% | 0.1% |
| CCC(C)C(=Nc1ccc(Cl)cc1)OCc1cccc(Oc2ccccc2)c1 (stereo not shown) [Compound 26] | > 100 µg | 0.007% | > 0.1% |
| CC(Cl)C(=Nc1ccc(Cl)c(Cl)c1)OCc1cccc(Oc2ccccc2)c1 (stereo not shown) [Compound 27] | > 100 µg | 0.04% | > 0.1% |
| CCC(=Nc1cccc(Cl)c1Cl)OCc1cccc(Oc2ccccc2)c1 [Compound 28] | > 100 µg | 0.009% | > 0.1% |
| CCC(=Nc1ccc(Cl)c(Cl)c1)OCc1cccc(Oc2ccccc2)c1 [Compound 36] | 20 µg | 0.024% | > 0.1% |
| CCCC(=Nc1ccc(Cl)c(Cl)c1)OCc1cccc(Oc2ccccc2)c1 [Compound 38] | 33 µg | 0.006% | 0.05% |
| CCC(C)C(=Nc1ccc(Cl)c(Cl)c1)OCc1cccc(Oc2ccccc2)c1 (stereo not shown) [Compound 39] | > 100 µg | 0.0023% | > 0.1% |
| CC(C)C(=Nc1ccc(Cl)c(Cl)c1)OCc1cccc(Oc2cccc(F)c2)c1 [Compound 40] | 36 µg | 0.0025% | 0.08% |
| CC(C)(C)C(=Nc1ccc(F)cc1)OCc1cccc(Oc2ccccc2)c1 [Compound 48] | > 100 µg | 0.03% | > 0.05% |
| CC(C)C(=Nc1cc(F)ccc1F)OCc1cccc(Oc2ccccc2)c1 [Compound 56] | 91 µg | 0.01% | > 0.05% |
| CC(C)C(=Nc1cc(F)c(F)cc1F)OCc1cccc(Oc2ccccc2)c1 [Compound 58] | 16 µg | 0.002% | 0.06% |
| CCC(=Nc1ccc(F)cc1F)OCc1cccc(Oc2ccccc2)c1 [Compound 59] | 25 µg | 0.02% | > 0.1% |

| Compound | LC50, HF [1] | LC50, CL [2] | LC50, TBW, E (TBW-E) [3] |
| --- | --- | --- | --- |
| COc1cc(N=C(OCc2cccc(Oc3ccccc3)c2)C(C)C)cc(C(F)(F)F)c1 [Compound 76] | 20 µg | 0.002% | 0.05% |
| CC(C)C(=Nc1cc(C(F)(F)F)cc(C(F)(F)F)c1)OCc1cccc(Oc2ccccc2)c1 [Compound 78] | > 100 µg | 0.0025% | > 0.1% |
| CC(C)C(=Nc1ccc(Br)cc1F)OCc1cccc(Oc2ccccc2)c1 [Compound 79] | 6 µg | 0.003% | 0.05% |
| CC(C)C(=Nc1cc(C(F)(F)F)ccc1F)OCc1cccc(Oc2ccccc2)c1 [Compound 84] | 93 µg | 0.006% | 0.1% |
| FC(F)(F)c1cccc(N=C(OCc2cccc(Oc3ccccc3)c2)C2CC2)c1 [Compound 86] | 65 µg | 0.013% | > 0.1% |
| Cc1cc(N=C(OCc2cccc(Oc3ccccc3)c2)C(C)C)ccc1F [Compound 87] | 5 µg | 0.004% | 0.03% |
| Cc1ccc(Cl)c(N=C(OCc2cccc(Oc3ccccc3)c2)C(C)C)c1 [Compound 93] | 64 µg | 0.005% | > 0.1% |
| Cc1ccc(N=C(OCc2cccc(Oc3ccccc3)c2)C(C)C)c(Cl)c1 [Compound 94] | 44 µg | 0.0045% | 0.075% |
| COc1cc(N=C(OCc2cccc(Oc3ccccc3)c2)C(C)C)c(OC)cc1Cl [Compound 99] | > 100 µg | 0.016% | > 0.1% |
| COc1ccc(OC)c(N=C(OCc2cccc(Oc3ccccc3)c2)C(C)C)c1Cl [Compound 100] | 100 µg | 0.05% | > 0.1% |
| CCSc1ccc(N=C(OCc2cccc(Oc3ccccc3)c2)C(C)C)cc1Cl [Compound 103] | > 100 µg | 0.015% | > 0.1% |
| CCOC(=O)c1ccc(N=C(OCc2cccc(Oc3ccccc3)c2)C(C)C)cc1Cl [Compound 104] | > 100 µg | 0.004% | > 0.1% |
| CC(C)C(=Nc1cccc(Oc2ccccn2)c1)OCc1cccc(Oc2ccccc2)c1 [Compound 114] | 92 µg | < 0.1% | – |
| FC(F)(F)c1ccc(Oc2ccc(COC(=Nc3ccc(Cl)cc3)C(Cl)Cl)cc2)nc1 [Compound 453] | > 100 µg | 0.1% | – |
| CC(C)C(=Nc1ccc(F)c(Cl)c1)OC(F)c1cccc(Oc2ccc(F)cc2)c1 (stereo not shown) [Compound 502] | 80 µg | – | – |
| CC(C)C(=Nc1ccc(OC(F)(F)F)cc1)OCc1cccc(Cc2ccccc2)c1 [Compound 542] | > 100 µg | > 0.01% | – |
